# Measured values published in patent publication US20230373934A1, “ANDROGEN RECEPTOR MODULATORS AND METHODS FOR THEIR USE” (ESSA Pharma, Inc., priority 2022, published 2023).
# Biological target: T1, androgen receptor (AR) (Homo sapiens, UniProt P10275, T878A)
# T1 construct: endogenous in cells; host or cells: LNCaP
# T1 sequence (P10275 1-920 T878A): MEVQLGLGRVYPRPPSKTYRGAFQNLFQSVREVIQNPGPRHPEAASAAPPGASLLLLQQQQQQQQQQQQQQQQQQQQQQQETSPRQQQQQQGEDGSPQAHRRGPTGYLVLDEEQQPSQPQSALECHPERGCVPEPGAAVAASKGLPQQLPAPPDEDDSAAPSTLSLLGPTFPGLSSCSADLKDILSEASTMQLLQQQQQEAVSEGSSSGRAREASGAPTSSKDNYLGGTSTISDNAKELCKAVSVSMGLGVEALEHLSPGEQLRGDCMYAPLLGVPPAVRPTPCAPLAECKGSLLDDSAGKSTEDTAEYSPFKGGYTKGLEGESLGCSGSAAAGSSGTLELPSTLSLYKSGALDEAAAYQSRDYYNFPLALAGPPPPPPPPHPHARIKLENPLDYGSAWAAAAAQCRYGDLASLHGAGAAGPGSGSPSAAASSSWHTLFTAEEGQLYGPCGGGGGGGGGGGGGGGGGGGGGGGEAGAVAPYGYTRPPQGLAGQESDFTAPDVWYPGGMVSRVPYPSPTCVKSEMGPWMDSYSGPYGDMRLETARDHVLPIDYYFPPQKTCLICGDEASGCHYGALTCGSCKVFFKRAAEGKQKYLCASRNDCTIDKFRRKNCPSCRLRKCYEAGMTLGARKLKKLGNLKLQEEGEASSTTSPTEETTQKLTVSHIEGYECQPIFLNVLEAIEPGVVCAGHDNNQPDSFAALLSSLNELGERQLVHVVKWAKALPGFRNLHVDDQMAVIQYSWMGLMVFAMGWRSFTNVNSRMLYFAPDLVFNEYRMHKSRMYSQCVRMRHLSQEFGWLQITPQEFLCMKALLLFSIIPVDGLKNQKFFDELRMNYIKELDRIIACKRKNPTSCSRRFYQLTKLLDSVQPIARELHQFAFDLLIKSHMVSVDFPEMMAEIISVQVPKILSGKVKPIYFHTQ
# Assay: Androgen-induced PSA-luciferase assay, Luciferase Assay A (LNCaP transiently transfected with PSA (6.1 kb)-luciferase reporter)
# Type: cell-based
# Settings: LNCaP cells, 1 h pretreatment, R1881 (1 nM) 24 h, read-out: PSA-Luc IC50 Range
# Procedure, shortened: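 LNCaP cells transfected 24 h with PSA (6.1 kb)-luciferase reporter, pretreated 1 h with compound, then stimulated 24 h with R1881 (1 nM). Firefly luminescence in lysates normalized to protein content; IC50 from activity relative to R1881-induced vehicle control.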
row,IC50,Compound
1,> 2000 nM,CC(C)(c1ccc(OCc2ccnc(NS(C)(=O)=O)n2)cc1)c1cc(Cl)c(OCCNS(C)(=O)=O)c(C#N)c1 [Compound A183]
2,< 500 nM,"CC(C)(c1ccc(OCc2cnc(NS(C)(=O)=O)nc2N)cc1)c1cc(Cl)c(OCCCl)c(C#N)c1 [Compound A118, N-(4-amino-5-((4-(2-(3-chloro-4-(2-chloroethoxy)-5-cyanophenyl)propan-2-yl)phenoxy)methyl)pyrimidin-2-yl)methanesulfonamide]"
3,> 2000 nM,CC(C)(c1ccc(OCc2ccnc(NS(C)(=O)=O)n2)cc1)c1cc(Cl)c(OCc2cnccn2)c(C#N)c1 [Compound A181]
4,500 to 2000 nM,CC(C)(c1ccc(OCc2ccnc(NS(C)(=O)=O)n2)cc1)c1cc(Cl)c(N2CCCC(F)(F)C2)c(C#N)c1 [Compound A152]
5,500 to 2000 nM,CC(C)(c1ccc(OCc2ccnc(NS(=O)(=O)c3cccs3)n2)cc1)c1cc(Cl)c(OCCCl)c(C#N)c1 [Compound A100]
6,500 to 2000 nM,CC(C)(c1ccc(OCC23CC(NS(C)(=O)=O)(C2)C3)cc1)c1cc(Cl)c(OC2CC2)c(C#N)c1 [Compound A143]
7,> 2000 nM,CC1(O)CN(Cc2c(Cl)cc(C(C)(C)c3ccc(OCc4ccnc(NS(C)(=O)=O)n4)cc3)cc2Cl)C1 [Compound A161]
8,500 to 2000 nM,CS(=O)(=O)NC1CN(c2ccc(-c3ccc(Oc4cc(Cl)c(OCCCl)c(C#N)c4)cc3)cn2)C1 [Compound A38]
9,> 2000 nM,CC(C)(c1ccc(OCc2ccnc(NS(C)(=O)=O)n2)cc1)c1cc(Cl)c(N2CCC(F)(F)CC2)c(C#N)c1 [Compound A132]
10,< 500 nM,CC(C)(c1ccc(-c2ccc(N3CC(CNS(C)(=O)=O)C3)nc2)cc1)c1cc(Cl)c(OCCCl)c(C#N)c1 [Compound A55]
11,500 to 2000 nM,CC(C)(c1ccc(-c2cnc(NC3CN(S(C)(=O)=O)C3)nc2)cc1)c1cc(Cl)c(OCCCl)c(C#N)c1 [Compound A76]
12,> 2000 nM,CS(=O)(=O)N[C@H]1C[C@H](n2cc(-c3ccc(Oc4cc(Cl)c(OCCCl)c(C#N)c4)cc3)cn2)C1 [Compound A79]
13,> 2000 nM,CC(C)(c1ccc(OCc2ccnc(NS(C)(=O)=O)n2)cc1)c1cc(Cl)c(CCO)c(C#N)c1 [Compound A129]
14,500 to 2000 nM,COc1c(Cl)cc(N(CC(F)(F)F)c2ccc(-c3ccc4nc(NS(C)(=O)=O)cnc4c3)cc2)cc1C#N [Compound A67]
15,> 2000 nM,CC(C)(c1ccc(OCc2ccnc(NS(C)(=O)=O)n2)cc1)c1cc(Cl)c(CCN2CC(F)(F)C2)c(C#N)c1 [Compound A168]
16,500 to 2000 nM,CC(C)(c1ccc(OC[C@]2(F)C[C@@H](NS(C)(=O)=O)C2)cc1)c1cc(Cl)c(OCCCl)c(C#N)c1 [Compound A39]
17,500 to 2000 nM,CC(C)(c1ccc(OC2CC3(CC(NS(C)(=O)=O)C3)C2)cc1)c1cc(Cl)c(OCCCl)c(C#N)c1 (stereo not drawn) [Compound A150]

row,IC50,Compound
1,< 500 nM,CC(C)(c1ccc(-c2ccc(CCNS(C)(=O)=O)nc2)cc1)c1cc(Cl)c(OCCCl)c(C#N)c1 [Compound A6]
2,500 to 2000 nM,CC(C)(c1ccc(OCc2ccnc(NS(C)(=O)=O)n2)cc1)c1cc(Cl)c(OC2CC(F)(F)C2)c(C#N)c1 [Compound A121]
3,> 2000 nM,CC(C)(c1ccc(CN2CCC(NS(C)(=O)=O)CC2)cc1)c1cc(Cl)c(OCCCl)c(C#N)c1 [Compound A8]
4,500 to 2000 nM,CC(C)(c1ccc(OCC23CC(NS(C)(=O)=O)(C2)C3)cc1)c1cc(Cl)c(N2CCOCC2)c(C#N)c1 [Compound A142]
5,500 to 2000 nM,CS(=O)(=O)Nc1cnc2cc(-c3ccc(Oc4cc(Cl)c(OCCCl)c(C#N)c4)cc3)cnc2n1 [Compound A49]
6,500 to 2000 nM,CC(C)(c1ccc(-c2cnc(CNS(C)(=O)=O)cn2)cc1)c1cc(Cl)c(OCCCl)c(C#N)c1 [Compound A2]
7,500 to 2000 nM,CC(C)(c1ccc(OC[C@H]2C[C@@H](CNS(C)(=O)=O)C2)cc1)c1cc(Cl)c(OCCCl)c(C#N)c1 [Compound A74]
8,500 to 2000 nM,CC(C)(c1ccc(Oc2cnc(CNS(C)(=O)=O)nc2)cc1)c1cc(Cl)c(OCCCl)c(C#N)c1 [Compound A86]
9,500 to 2000 nM,CS(=O)(=O)NC12CC(n3cc(-c4ccc(Oc5cc(Cl)c(OCCCl)c(C#N)c5)cc4)cn3)(C1)C2 [Compound A99]
10,> 2000 nM,CC(C)(c1ccc(OCc2ccnc(NS(=O)(=O)c3cccnc3)n2)cc1)c1cc(Cl)c(OCCCl)c(C#N)c1 [Compound A109]
11,> 2000 nM,CC(C)(c1ccc(OCc2ccnc(NS(C)(=O)=O)n2)cc1)c1cnc(OCCCl)c(C#N)c1 [Compound A170]
12,500 to 2000 nM,CC(C)(c1ccc(OCc2ccnc(NS(C)(=O)=O)n2)cc1)c1cc(Cl)c(OCCCOC(=O)Nc2ccccc2)c(C#N)c1 [Compound A139]
13,< 500 nM,CC(C)(c1ccc(N2CCOC3(CCN(S(C)(=O)=O)CC3)C2)cc1)c1cc(Cl)c(OCCCl)c(C#N)c1 [Compound A32]
14,500 to 2000 nM,CC(C)(c1ccc(Oc2ccnc(CNS(C)(=O)=O)n2)cc1)c1cc(Cl)c(OCCCl)c(C#N)c1 [Compound A85]
15,500 to 2000 nM,CC(C)(c1ccc(-c2ccc(N3CCCC(NS(C)(=O)=O)C3)nc2)cc1)c1cc(Cl)c(OCCCl)c(C#N)c1 (stereo not drawn) [Compound A59]
16,> 2000 nM,CS(=O)(=O)NC1CN(c2ncc(-c3ccc(Oc4cc(Cl)c(OCCCl)c(C#N)c4)cc3)cn2)C1 [Compound A70]
17,> 2000 nM,CC(C)(c1ccc(OCc2ccnc(-n3cc(S(N)(=O)=O)cn3)n2)cc1)c1cc(Cl)c(OCCCl)c(C#N)c1 [Compound A104]

# Biological target: T2, androgen receptor (AR) (Homo sapiens, UniProt P10275)
# T2 sequence (P10275 1-920 T878A): T1 sequence (P10275 1-920 T878A)
# Assay: Androgen-induced PSA-luciferase assay, Luciferase Assay B (cells stably expressing ARR2PB or PSA-firefly luciferase reporter, 384-well)
# Type: cell-based
# Settings: Luciferase Assay B (Compounds A186-A219 and A221-A245); stable luciferase reporter cells, 1 h pretreatment, R1881 24 h, serum-free; read-out: PSA-Luc IC50 Range
# Protocol: Luciferase Assay B: Cells stably expressing probasin promoter (ARR2PB) or human prostate-specific antigen (PSA)-firefly luciferase reporter were plated in poly-D-lysine-coated 384-well plates. 48 h after plating, cells were pretreated with vehicle or compounds for 1 h before adding R1881 under serum-free and phenol red-free conditions and then further incubated for 24 h. R1881 was added only for LNCaP cells. Firefly luciferase activities were determined by EnVision plate reader (Perkinemer) using the Steady-Glo Luciferase Reporter Assay System (Promega). Values were normalized to protein content. GraphPad Prism graphing software was used to calculate IC50 values. Luciferase Assay B was run for Compounds A186-A219 and A221-A245 in Table 2.
# Statistical analyses were performed using GraphPad Prism (Version 6.01 for Windows; La Jolla, CA, USA). Comparisons between treatment and control groups were compared using Two-Way ANOVA with post-hoc Dunnett's and Tukey's tests. Differences were considered statistically significant at P values less than 0.05.
row,IC50,Compound
1,500 to 2000 nM,CC(=O)N1CCN(c2cnc3cc(-c4ccc(Oc5cc(Cl)c(OC6CC6)c(C#N)c5)cc4)ccc3n2)CC1 [Compound A242]
2,< 500 nM,CC(=O)N1CCN(c2nccc(COc3ccc(N(CC(F)(F)F)c4cc(Cl)c(OC5CC5)c(C#N)c4)cc3)n2)CC1 [Compound A245]
3,500 to 2000 nM,CC(C)(c1ccc(OCc2ccnc(N3CCNCC3)n2)cc1)c1cc(Cl)c(OC2CC2)c(C#N)c1 [Compound A243]
4,< 500 nM,CN(c1cnc2cc(-c3ccc(N(CC(F)(F)F)c4cnc(OC5CC5)c(C#N)c4)cc3)ccc2n1)S(C)(=O)=O [Compound A239]
5,> 2000 nM,CS(=O)(=O)Nc1cncc(N2CCN(c3ccc(Oc4cc(Cl)c(OC5CC5)c(C#N)c4)cc3)CC2)n1 [Compound A229]
6,> 2000 nM,CS(=O)(=O)Nc1cc2n(n1)CCN(c1ccc(Oc3cc(Cl)c(OC4CC4)c(C#N)c3)cc1)C2 [Compound A231]
7,> 2000 nM,N#Cc1cc(Oc2ccc(-c3ccc4nc(N5CCNCC5)ncc4c3)cc2)cc(Cl)c1OC1CC1 [Compound A241]
8,500 to 2000 nM,CS(=O)(=O)Nc1cncc(N2CC(c3ccc(Oc4cc(Cl)c(OC5CC5)c(C#N)c4)cc3)C2)n1 [Compound A232]
9,< 500 nM,CS(=O)(=O)Nc1nccc(COc2ccc(N(CC(F)(F)F)c3cc(Cl)c(N4CCOCC4)c(C#N)c3)cc2)n1 [Compound A223]
10,< 500 nM,"CS(=O)(=O)Nc1cnc2cc(-c3ccc(N(CC(F)(F)F)c4cc(Cl)c(N5CCOCC5)c(C#N)c4)cc3)ccc2n1 [Compound A224, N-(6-(4-((3-chloro-5-cyano-4-morpholinophenyl)(2,2,2-trifluoroethyl)amino)phenyl)quinoxalin-2-yl)methanesulfonamide]"
11,> 2000 nM,Cn1nc(NS(C)(=O)=O)c2ccc(-c3ccc(Oc4cc(Cl)c(OC5CC5)c(C#N)c4)cc3)cc21 [Compound A209]
12,> 2000 nM,CS(=O)(=O)NC12CC(COc3ccc(N(CC(F)(F)F)c4cnc(NC5CC5)c(C#N)c4)cc3)(C1)C2 [Compound A235]
13,500 to 2000 nM,CS(=O)(=O)Nc1ncc(-c2ccc(Oc3cc(Cl)c(OC4CC4)c(C#N)c3)cc2)cn1 [Compound A196]
14,> 2000 nM,CS(=O)(=O)Nc1cnc2cc(-c3ccc(Oc4cnc(OC5CC5)c(C#N)c4)cc3)ccc2n1 [Compound A217]
